The record followed here is PMC11784013, “Potassium molybdate blocks APN-dependent coronavirus entry by degrading receptor via PIK3C3-mediated autophagy” (Journal of Virology, 2024).

“Also recorded” adds a separate entry of the source.

The test system of assay [1] is TGEV. The assay is described as follows: Time-of-drug-addition assay with TGEV in ST cells (inactivation, adsorption, penetration, replication, release). The class given is cell-based, transmissible gastroenteritis virus. Here is the method:
Fig 4 PM dampens TGEV infection by mainly blocking viral entry. (A) Inactivated assay. TGEV (0.1 MOI, red bar) and PM (10 mΜ) or H2O (blue bar) were mixed and incubated at 37°C for 3 and 5 h, respectively, and then the mixtures were added into ST cells. After incubation at 37°C for another 1 h, culture supernatants were replaced with fresh culture medium for 17 h at 37°C. After washing with PBS, the mRNA levels and viral load of TGEV N protein were measured by RT-qPCR. (B) Adsorption assay. ST cells were pretreated with PM (10 mΜ) or H2O (blue bar) for 1 h at 37°C, and then the media were replaced by a mixture of PM (10 mΜ) or H2O and TGEV (5 MOI, red bar) for 0.5 or 1 h at 4°C. After washing with PBS, the genomic RNA levels and viral load of TGEV N protein were measured by RT-qPCR. (C and D) Penetration assay. ST cells were infected with 5 MOI TGEV (red bar) for 1 h at 4°C and were then treated with PM (10 mΜ) or H2O (blue bar) for 1 or 2 h at 37°C after washing with PBS. The cell samples were washed using sodium citrate buffer and tested through RT-qPCR (C) and IFA (D), scale bar: 50 µm/5 µm. (E) Replication assay. ST cells infected with 5 MOI TGEV (red bar) were incubated at 37°C for 3 h and washed with sodium citrate buffer. Then, cells were treated with PM (10 mΜ) or H2O (blue bar) for 5 or 13 h. The cells were harvested and examined by RT-qPCR. (F) Release assay. ST cells were infected with 5 MOI TGEV (red bar) for 16 h and then PM (10 mΜ) or H2O (blue bar) was added to the cells for 1 or 2 h. qRT-PCR was used to test the mRNA levels and viral load of the virus in the supernatant. Results are presented as mean ± SD of data from three independent experiments. ***, P ≤ 0.001; ns, no significance. […]
red bar) and PM (10 mΜ) or H2O (blue bar) were mixed and incubated at 37 °C for 3 h and 5 h respectively and then the mixtures were added into ST cells. After incubation at 37°C for another 1 h, culture supernatants were replaced with fresh culture medium for 17 h at 37°C. Viral titers were detected by TCID50. (B) Release assay. ST cells were infected with 0.1 MOI TGEV (red bar) for 16 h and then PM (10 mΜ) or H2O (blue bar) was added to the cells for 1 h or 2 h. TCID50 was used to test the viral titers in supernatant. Results are presented as mean ± SD of data from three independent experiments ns, no significant.
(also on this page, place not known: 3h 5h 0 2 4 6 8 H2O PM log10 TCID50/ml ns ns 0 2 4 6 8 H2O PM log10 TCID50/ml ns ns -3h-5h 17h 18h CollectedPM/H2O) […]

The test system of assay [2] is BECN1. As to the kind of experiment: BECN1 expression in ST cells (western blot). The class given is cell-based, porcine. Conditions: Fig. S8A, PM 10 mM, PRCV 0.1 MOI, 16 h. Here is the method: Fig 7 PM degrades APN expression via activating PIK3C3-mediated autophagy. (A) Graphical representation for autophagy and the targets of different autophagy inhibitors. (B) ST cells were treated with PM (10 mM) in the presence and absence of 3-MA (20 mM), SBI0206965 (20 µM), and 3BDO (30 µM) for 16 h, and the APN expression was detected by western blot. (C) ST cells were treated with PM (10 mM) in the presence and absence of 3-MA (20 mM) for 16 h, and the APN, PIK3C3, ATG14, BECN1, P62, and LC3 were measured by western blot. (D) ST cells were transfected with PIK3C3 siRNA-1, PIK3C3 siRNA-2, PIK3C3 siRNA-3, PIK3C3 siRNA-4, and NC siRNA for 24 h, the PIK3C3 expression was detected by western blot. […] The APN, PIK3C3, ATG14, BECN1, P62, and LC3 were detected by western blot. […] (G) PIK3C3 was detected by western blot in WT ST cells and PIK3C3 KO ST cells. (H) WT ST cells and PIK3C3 KO ST cells were treated with PM (10 mM) for 16 h and then the APN, PIK3C3, ATG14, BECN1, P62, and LC3 were detected by western blot. […] The APN, PIK3C3, P62, and LC3 were detected by western blot. All western blot results were calculated by Image J. All experiments were performed in triplicate.
Fig. S8. […] Then the APN, PIK3C3, ATG14, BECN1, P62, PRCV N and LC3 were detected by western blot (A), and viral titers and PRCV N mRNA level were determined by TCID50 (B) and RT-qPCR (C) . […]
In general terms: Immunoblotting shows a protein as a band on a membrane.

As for `[K+].[K+].[O]=[Mo](=[O])([O-])[O-]` [PM, potassium molybdate], the “direct inactivation of TGEV (inactivated assay)” value in assay [1] (PM 10 mM mixed with TGEV 0.1 MOI at 37°C for 3 and 5 h, RT-qPCR, TCID50) is “cannot inactivate TGEV and affect viral release”. Besides, the TGEV release result in assay [1] (ST cells, PM 10 mM added 16 h after infection for 1 or 2 h, RT-qPCR, TCID50 of supernatant) is “cannot inactivate TGEV and affect viral release; also recorded: uninfluential in virus adsorption and release”. Besides, the TGEV adsorption result in assay [1] (ST cells, PM 10 mM, TGEV 5 MOI, 0.5 or 1 h at 4°C, RT-qPCR) is “uninfluential in virus adsorption and release”. For the same molecule, in assay [1] (ST cells, PM 10 mM, TGEV 5 MOI, 1 or 2 h at 37°C, RT-qPCR and IFA), the “TGEV entry (penetration assay)” value is reported as “significantly inhibited TGEV entry”. For the same molecule, in assay [1] (ST cells, PM 10 mM, TGEV 5 MOI, PM for 5 or 13 h from 3 h after infection, RT-qPCR), the TGEV replication entry is listed as “moderately restricted viral replication”. Besides, the “BECN1 level, western blot, relative to WT without PM (=1)” value in assay [2] (PIK3C3 KO ST cells) came out at 0.95; in assay [2] (WT ST cells), 1.01.
